± gives the standard deviation of the averaged measurements.
What was measured:
[1] = compound: COCC[n+]1c2c(n(Cc3cnccn3)c1C)C(=O)c1ccccc1C2=O [YM155]; test: surviving fraction relative to DMSO-only wells; higher = less growth inhibition; settings: exposure time: 5 days
Summary of the method: (§1)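 Tumour cell lines in log phase were plated in 384-well plates at 250–500 cells per well, then, after 24 hours, exposed continuously for five days to inhibitors at 0.5, 1, 5, 10, 50, 100, 500 and 1000 nM. Viability came from CellTiter-Glo luminescence, and surviving fraction is that signal normalised to the median of DMSO-only wells. Plates were read after 10 minutes at room temperature, and each line, screened three times, was kept only when replicate Pearson r was >0.7 and median Z' was >0.3.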

[2] = compound: CC[C@@]1(O)C(=O)OCc2c1cc1n(c2=O)Cc2cc3ccccc3nc2-1 [CAMPTOTHECIN]; test: as above; settings: exposure time: 5 days
Summary of the method: as §1

Row | Test System | surviving fraction ([1]; 0.5 nM) | surviving fraction ([1]; 1 nM) | surviving fraction ([1]; 5 nM) | surviving fraction ([1]; 10 nM) | surviving fraction ([1]; 50 nM) | surviving fraction ([1]; 100 nM) | surviving fraction ([1]; 500 nM) | surviving fraction ([1]; 1000 nM) | surviving fraction ([2]; 0.5 nM) | surviving fraction ([2]; 1 nM) | surviving fraction ([2]; 5 nM) | surviving fraction ([2]; 10 nM) | surviving fraction ([2]; 50 nM) | surviving fraction ([2]; 100 nM) | surviving fraction ([2]; 500 nM) | surviving fraction ([2]; 1000 nM)
1 | HT1080 SOFT TISSUE | 1.03 ± 0.021 | 0.954 ± 0.035 | 0.433 ± 0.0064 | 0.237 ± 0.017 | 0.063 ± 0.0027 | 0.0373 ± 0.0021 | 0.0277 ± 0.00058 | 0.0297 ± 0.00058 | 0.956 ± 0.017 | 0.925 ± 0.027 | 0.739 ± 0.034 | 0.361 ± 0.0046 | 0.377 ± 0.014 | 0.26 ± 0.022 | 0.0953 ± 0.016 | 0.0837 ± 0.0075
2 | SUM44 BREAST | 1.05 ± 0.16 | 1.15 ± 0.24 | 1.1 ± 0.2 | 1 ± 0.27 | 0.358 ± 0.12 | 0.225 ± 0.055 | 0.121 ± 0.049 | 0.125 ± 0.064 | 0.808 ± 0.15 | 0.813 ± 0.082 | 0.835 ± 0.11 | 0.846 ± 0.056 | 0.985 ± 0.12 | 0.927 ± 0.096 | 0.326 ± 0.038 | 0.231 ± 0.048
3 | NY BONE | 0.911 ± 0.035 | 0.949 ± 0.017 | 0.965 ± 0.021 | 0.997 ± 0.031 | 1.01 ± 0.02 | 0.988 ± 0.037 | 0.449 ± 0.023 | 0.346 ± 0.0047 | 0.894 ± 0.052 | 0.905 ± 0.021 | 0.648 ± 0.026 | 0.184 ± 0.012 | 0.067 ± 0.0061 | 0.0407 ± 0.0015 | 0.02 ± 0.0017 | 0.0217 ± 0.0021
4 | VCAP PROSTATE | 0.826 ± 0.049 | 0.9053 ± 0.0074 | 0.34 ± 0.025 | 0.286 ± 0.051 | 0.0533 ± 0.027 | 0.035 ± 0.007 | 0.0293 ± 0.0067 | 0.0617 ± 0.03 | 0.879 ± 0.094 | 0.902 ± 0.052 | 0.801 ± 0.1 | 0.508 ± 0.034 | 0.412 ± 0.028 | 0.4023 ± 0.0023 | 0.219 ± 0.034 | 0.158 ± 0.069
5 | HCC78 LUNG | 0.7 ± 0.12 | 0.701 ± 0.23 | 0.457 ± 0.059 | 0.269 ± 0.062 | 0.0407 ± 0.0029 | 0.0247 ± 0.004 | 0.016 | 0.0187 ± 0.0025 | 0.33 ± 0.059 | 0.597 ± 0.15 | 0.0267 ± 0.0057 | 0.0123 ± 0.0031 | 0.0137 ± 0.0031 | 0.0147 ± 0.0023 | 0.013 ± 0.0027 | 0.016 ± 0.0027
6 | SKBR3 BREAST | 0.89 ± 0.03 | 0.849 ± 0.055 | 0.825 ± 0.024 | 0.53 ± 0.071 | 0.0403 ± 0.012 | 0.0253 ± 0.0067 | 0.0247 ± 0.0074 | 0.0243 ± 0.0058 | 0.83 ± 0.073 | 0.806 ± 0.029 | 0.757 ± 0.1 | 0.529 ± 0.029 | 0.222 ± 0.01 | 0.166 ± 0.013 | 0.0683 ± 0.0042 | 0.0517 ± 0.0049
7 | HS57T BREAST | 0.919 ± 0.02 | 0.923 ± 0.056 | 0.729 ± 0.058 | 0.799 ± 0.1 | 0.287 ± 0.029 | 0.182 ± 0.013 | 0.0527 ± 0.0015 | 0.0473 ± 0.0047 | 0.826 ± 0.044 | 0.849 ± 0.041 | 0.79 ± 0.011 | 0.505 ± 0.031 | 0.192 ± 0.007 | 0.149 ± 0.0066 | 0.0707 ± 0.0025 | 0.0653 ± 0.0081
8 | MG63 BONE | 0.978 ± 0.036 | 1.04 ± 0.057 | 0.783 ± 0.048 | 0.659 ± 0.026 | 0.0477 ± 0.0021 | 0.0237 ± 0.0015 | 0.021 ± 0.001 | 0.027 ± 0.0017 | 0.873 ± 0.015 | 0.871 ± 0.028 | 0.434 ± 0.019 | 0.295 ± 0.0068 | 0.0393 ± 0.0065 | 0.024 ± 0.001 | 0.02 ± 0.001 | 0.023 ± 0.001

Reference: the supplement of paper PMC6045584
